Laboratory results: publication PMC12509328, “Human Internal Exposures of Bisphenol A and Six Data-Poor Analogs Predicted by Physiologically Based Kinetic Models with Multimodal Parametrization” (Environmental Science & Technology, 2025)
Like-named read-outs stand apart in the source and are kept apart here. Marks after values point to notes of the source that are not given here.

Experiments:
[1] = Present human PBK model, model evaluation (scenarios 3 and 4); settings: for predicted AUC, times higher than observed: present model vs Teeguarden et al. (BPA dosing); for predicted blood C max as percent of the observed value: present model vs Teeguarden et al.; for predicted blood C max as percent of the observed value / predicted blood C max, times higher than in vivo observed: average
Source text: Several exposure scenarios were defined for parameter gathering, model evaluation, and internal exposure assessment (Table ). In scenarios 1 and 2, a rat PBK model was used to parametrize enterohepatic circulation (EHC) rates for application in human PBK models. […] Models were developed for four human physiologies: male (“man”) and female adults (“woman”), male “child”, and male “toddler” (Table S2). These models were selected based on available physiological data for key organs (thyroid, breasts, and testes), related to ED and the detected bisphenol exposure level. The repeated dose scheme from Karrer et al. was reproduced (scenarios 9 to 12) to model chronic exposure via three meals a day.
When not individually compartmentalized, organs were categorized as either slowly perfused tissues or rapidly perfused tissues and combined. Compartments related to the thyroid, testes, and breasts (depending on sex) were included in human but not rat models. Code was compiled in Berkeley Madonna 10 and Python (see Supporting Information and GitLab: https://gitlab.ethz.ch/eth_toxlab/pbk_model_bisphenol_analogs).
These PBK models were parametrized using a multimodal framework that integrates new approach methodology tools into a reproducible chemical-family wide workflow. This framework combines QSARs, in vitro experiments, and cross-species extrapolation to parametrize PBK models for a family of compounds, some of which were considered data-poor (Figure ). […] Organism-based parameters were tailored to account for species, sex, and age when possible (Figure and Table S2). − Parameters based on both the organism and chemical were partition coefficients, intestinal uptake, EHC rate, and glucuronidation kinetics (Figure ).
To address parameter uncertainty in concentrations that were predicted with human PBK models, 10,000 Monte Carlo (MC) simulations were performed. Each sensitive parameter was resampled according to probability distributions from the literature (Table S8). ,− To ensure physiological plausibility, EHC rates were constrained between 0 and 1, and the sum of all relative organ weights and the sum of all relative organ blood flows were kept constant. MC simulation outcomes were analyzed by comparing the first quartile, the median, and the third quartile values of concentrations per time point.

[2] = parameters: method as in Teeguarden et al.; settings: ref Teeguarden et al., cited from earlier work
[3] = blood; previous model, BPA; ref Karrer et al.; cited from earlier work
[4] = Glucuronidation kinetics in human liver S9; settings: human
Experimental: (§1) The glucuronidation kinetics of BPA, BPB, BPE, BPF, BPAF, and BPM were determined as described in the Supporting Information (Tables S6 and S7). Outliers were excluded using the Nalimov test.
(§2) Supplementary information on glucuronidation kinetics measurement
(§3) BPA, BPB, BPE and BPM were incubated with Corning® UltraPool™ Human Liver S9 in a buffer […]
(§4) containing UDPGA. […]
(§5) S9 protein). For each assay, an S9 aliquot was thawed on ice, and a reaction master mix was prepared with 0.1 mg S9 protein/mL in either 0.1 M (for BPA, BPB, BPAF, and BPF) or […] (for BPE and BPM) Tris-HCl, along with 10 mM UDPGA in 50 mM Tris-HCl (pH 7.4), 25 µg/mL alamethicin, and 10 mM magnesium chloride. Negative controls using 0.1 M Tris-HCl without UDPGA were included. Each reaction solution (100 µL) was pre-incubated for 5 min at 37° C with 350 rpm shaking. To this solution was added bisphenol solutions (0 to 20 mM) in DMSO in a ratio of 1:100 to achieve final bisphenol concentrations of 0 to 200 µM and 1% (v/v) […]
(§6) glucuronidation reaction was stopped by adding cold methanol (160 μL) and samples were kept at -20 °C for 1 h to precipitate proteins. The resulting mixture was centrifuged (10 min, 4 °C, 15,000 rcf). Supernatants were analyzed using High-performance liquid chromatography (HPLC) with diode array detector (DAD). […]
(§7) A gradient elution […]
(§8) was used with water containing 0.1% formic acid as eluent A and acetonitrile with 0.1% formic acid as eluent B. The initial condition of 15% eluent B was increased to 65% eluent B over 20 min, and then to 90% eluent B in the next 5 min. […]
(§9) and their glucuronides are provided in Supplementary Table S7. Calibration curves were set from concentrations ranging from 1 to 100 µM.

[5] = system: Human Liver S9; assay: Glucuronidation kinetics in human liver S9; settings: human liver S9 fractions; for Vmax hepatic glucuronidation / Km: GraphPad Prism fitting; for Ksi hepatic glucuronidation: substrate inhibition fit; for Km: read-out: Km hepatic glucuronidation
Experimental: as §1, §2, §3, §4, §5, §6, §7, §8, §9

[6] = system: human small intestinal S9; assay: Glucuronidation in human small intestinal S9; type: in vitro ADME
Experimental: Supplementary information on glucuronidation kinetics measurement […]
µg/mL alamethicin, and 10 mM magnesium chloride. Negative controls using 0.1 M Tris-HCl […]
without UDPGA were included.
37° C with 350 rpm shaking. […]
at -20 °C for 1 h to precipitate proteins. The resulting mixture was centrifuged (10 min, 4 °C, 15,000 rcf). Supernatants were analyzed using High-performance liquid chromatography (HPLC) with diode array detector (DAD). Similar experiments were conducted for BPA, BPB, BPE, and […]
Bisphenol concentrations ranged
The retention times for the various bisphenols […]
as §9

[7] = parameters: method as in Thayer et al.; settings: ref Thayer et al., cited from earlier work
[8] = ref Yang et al.; cited from earlier work
[9] = Glucuronidation kinetics in rat liver S9; settings: male, Sprague-Dawley, rat, rat liver S9, pH 7.4
Experimental: as §1, §2
as §5, with “BPA, BPB, BPE and BPM were incubated with Corning® UltraPool™ Human Liver S9 in a buffer containing UDPGA. The S9 reagent (20 mg protein/mL) was aliquoted and stored at -80° C until use. BPAF and BPF were incubated similarly with rat liver S9 (Sprague-Dawley, male, 0.1 mg/mL S9 protein).” for “S9 protein).”
as §6, with “(DAD). Similar experiments were conducted for BPA, BPB, BPE, and BPM with human small intestinal S9 mix (0.025 to 0.25 mg/mL). Bisphenol concentrations ranged from 5 to 120 µM, and incubation times from 15 to 120 min.” for “(DAD).”
(§10) series HPLC system with a Waters XBridge BEH130 C18 column (4.6 × 150 mm, 3.5 μm particle size) for separation and a DAD set to a detection wavelength of λ = 280 nm. A gradient elution was used with water containing 0.1% formic acid as eluent A and acetonitrile with 0.1% formic acid as eluent B. The initial condition of 15% eluent B was increased to 65% eluent B over 20 min, and then to 90% eluent B in the next 5 min. […]
as §9

[10] = system: rat liver S9 (Sprague-Dawley, male); assay: Glucuronidation kinetics in rat liver S9
Experimental: as §1, §2
as §5, with “BPA, BPB, BPE and BPM were incubated with Corning® UltraPool™ Human Liver S9 in a buffer containing UDPGA. The S9 reagent (20 mg protein/mL) was aliquoted and stored at -80° C until use. BPAF and BPF were incubated similarly with rat liver S9 (Sprague-Dawley, male, 0.1 mg/mL S9 protein).” for “S9 protein).”
as §6, with “(DAD). Similar experiments were conducted for BPA, BPB, BPE, and BPM with human small intestinal S9 mix (0.025 to 0.25 mg/mL). Bisphenol concentrations ranged from 5 to 120 µM, and incubation times from 15 to 120 min.” for “(DAD).”
as §10, §9

[11] = parameters: method as in Oh et al.; settings: blood, in vivo, 4 men and 3 women, ref Oh et al., cited from earlier work; for Cmax: 8.75 μg/kg bw d4-BPS in a chocolate cookie; for AUC / t max: 8.75 μg/kg bw d4-BPS
[12] = parameters: method as in Oh et al.; settings: blood; previous model, BPS; ref Oh et al.; cited from earlier work
[13] = blood, in vivo, 10 men, 30 μg/kg bw d6-BPA in soup
[14] = rat liver S9 fractions, GraphPad Prism fitting
[15] = present model vs Oh et al. (BPS dosing)

In the case of `CC(C)(c1ccc(O)cc1)c1ccc(O[C@@H]2O[C@H](C(=O)O)[C@@H](O)[C@H](O)[C@H]2O)cc1` [BPA glucuronide], the “predicted AUC, times higher than observed” value [1] is listed as “about 1.5 times”, the “predicted blood C max as percent of the observed value” [1] is listed as 80% and the Cmax ([2]; blood, in vivo, 10 men, 30 μg/kg bw d6-BPA in 355 mL of soup, (range)) is listed as 0.286 µM. The AUC [2, 13] was 680 (571–1′210) ^a nM x day, the t max [2, 13] was 1.2 (0.8–2.2) ^a h and the Cmax [3] was 0.61 µM. For the same compound, the t max [3] was 0.94 (0.93–0.97) ^c h.
In the case of `CC(C)(c1ccc(O)cc1)c1ccc(O)cc1` [BPA, bisphenol A], the “predicted AUC, times higher than observed” value [1] is reported as “about 1.5 times”, the “predicted blood C max as percent of the observed value” [1] is reported as 63% and the Km ([4]; pH 7.4) is reported as 13.1 µM. For the same compound, the Vmax hepatic glucuronidation [5] was 4.06 nmol/min/mg, the “glucuronidation rates in small intestinal S9 fractions” value [6] was “negligible” and the urinary excretion ([2]; at 24 h, range 90–116%) was 104%. The AUC [2, 13] was 2.5 (1.4–5.7) ^a nM x day, the “urinary fraction of unconjugated BPA” value [2] was 0.03% and the urinary excretion ([7]; at 24 h, range 92–100%) was 98%. For the same compound, the cumulative urinary excretion ([7]; by 48 h) was 80–110%, the “urinary fraction of unconjugated BPA” value [7] was 0.029% and the “total BPA excreted” value ([7]; within 12 h post exposure, range 86–98%) was 94%. The AUC [3] was 4.15 (2.91–5.15) ^c nM x day, the Cmax [3] was 0.00131 µM and the t max [3] was 0.72 (0.67–0.77) ^c h. For the same compound, the “glucuronidated BPA undergoing EHC” value [8] was “ten”.
Compound `Oc1ccc(C(c2ccc(O)cc2)(C(F)(F)F)C(F)(F)F)cc1` [BPAF, Bisphenol AF] has a Km [9] of 49.7 µM, a Vmax hepatic glucuronidation [10, 14] of 7.10 nmol/min/mg and a Ksi hepatic glucuronidation ([10]; rat liver S9 fractions, substrate inhibition fit) of 27.63 µM.
Work on `CCC(C)(c1ccc(O)cc1)c1ccc(O)cc1` [BPB, Bisphenol B] yielded a Km ([4]; human liver S9, pH 7.4) of 12.3 µM, a Vmax hepatic glucuronidation [5] of 5.81 nmol/min/mg and a Ksi hepatic glucuronidation [5] of 21.48 µM. For the same compound, the “glucuronidation rates in small intestinal S9 fractions” value [6] was “negligible”.
`CC(c1ccc(O)cc1)c1ccc(O)cc1` [BPE, Bisphenol E] showed a Vmax hepatic glucuronidation [5] of 3.42 nmol/min/mg, a Ksi hepatic glucuronidation [5] of 280.6 µM and a Km [5] of 51.3 µM. The “glucuronidation rates in small intestinal S9 fractions” value [6] was “negligible”.
`Oc1ccc(Cc2ccc(O)cc2)cc1` [BPF, Bisphenol F] gave a Vmax hepatic glucuronidation [10, 14] of 1.17 nmol/min/mg, a Vmax hepatic glucuronidation ([10]; rat model code) of 1.173 nmol/min/mg and a Km ([10]; read-out: Km hepatic glucuronidation, rat liver S9 fractions, GraphPad Prism fitting) of 47.5 µM.
In the case of `CC(C)(c1ccc(O)cc1)c1cccc(C(C)(C)c2ccc(O)cc2)c1` [BPM, Bisphenol M], the Vmax hepatic glucuronidation [5] is reported as 4.89 nmol/min/mg, the Ksi hepatic glucuronidation [5] is reported as 51.75 µM and the Km [5] is reported as 20.2 µM. For the same compound, the “glucuronidation rates in small intestinal S9 fractions” value [6] was “negligible”.
For `O=C(O)[C@H]1O[C@@H](Oc2ccc(S(=O)(=O)c3ccc(O)cc3)cc2)[C@H](O)[C@@H](O)[C@@H]1O` [BPS glucuronide], the “mean predicted AUC, times higher than in vivo” value [1, 15] is given as “about 2.4 times”, the “predicted blood C max, times higher than in vivo observed” value [1, 15] is given as 2.8 times and the Cmax [11] is given as 0.0105 µM. For the same compound, the AUC [11] was 78.7 (54–103) ^d nM x day and the t max [11] was 1.0 (1.0–1.0) ^d h.
In the case of `O=S(=O)(c1ccc(O)cc1)c1ccc(O)cc1` [BPS, Bisphenol S], the “delay of average predicted t max vs measure” value [1, 15] is given as 1.7 h, the “predicted blood C max, times higher than in vivo observed” value [1, 15] is given as 1.6 times and the Cmax [11] is given as 0.00879 µM. For the same compound, the AUC [11] was 40 − , ^d nM x day, the t max [11] was 0.5 (0.25–0.5) ^d h and the AUC [12] was 39.8 − ^, ^e nM x day. For the same compound, the Cmax [12] was 0.0101 µM and the t max [12] was 0.57 (0.26–0.88) ^e h.
